Values joined by “and” are separate entries in the source; they are usually repeats but may differ in a detail not shown here. Identical values can stand only once.
Target: T1, human TAS2R1 (Homo sapiens, UniProt Q9NYW7)
T1 construct: expressed in transfected cells; host or cells: HEK293T-Gα16gust44
T1 sequence (Q9NYW7 1-299): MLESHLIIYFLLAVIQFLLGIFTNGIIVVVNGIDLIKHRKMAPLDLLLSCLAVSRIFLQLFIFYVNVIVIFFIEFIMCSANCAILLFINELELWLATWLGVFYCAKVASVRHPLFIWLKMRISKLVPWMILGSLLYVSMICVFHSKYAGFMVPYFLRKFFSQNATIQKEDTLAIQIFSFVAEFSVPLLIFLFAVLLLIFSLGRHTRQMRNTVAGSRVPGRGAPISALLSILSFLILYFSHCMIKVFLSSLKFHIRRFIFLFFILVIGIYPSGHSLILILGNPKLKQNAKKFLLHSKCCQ
Assay: Calcium imaging assay (FLIPR), HEK293T-Gα16gust44 cells transfected with human TAS2R1
Format: cell-based
Method in brief: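 Read-out is Fluo-4 fluorescence change (ΔF/F) after automated application of bile acids (DMSO stocks) to transiently transfected cells. Values are corrected for empty-vector cells and normalized to buffer. Dose-response from three independent experiments in duplicate; threshold concentration set at p < 0.01 versus mock.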

With `C[C@H](CCC(=O)O)[C@H]1CC[C@H]2[C@@H]3CC[C@@H]4C[C@H](O)CC[C@]4(C)[C@H]3CC[C@]12C` [Lithocholic Acid, lithocholic acid] the “Efficacy = maximal amplitude (ΔF/F)” value (TAS2R1, bile acids, mean) was 0.1221, the “Efficacy (maximal amplitude ΔF/F), individual data points” value (TAS2R1, bile acids, single replicates, listed as LCA) was 0.1505 and 0.1173 and 0.0984 and the RLU (Time 0 s) was 0 RLU. For the same compound, the RLU (Time 2.015 s) was -14.5951 RLU, the RLU (Time 4.015 s) was -7.128 RLU and the RLU (Time 6.015 s) was 1.224 RLU. For the same compound, the RLU (Time 8.015 s) was 0.3531 RLU, the RLU (Time 12.015 s) was -16.4638 RLU and the RLU (Time 14.015 s) was -4.132 RLU. The RLU (Time 16.015 s) was -20.8125 RLU, the RLU (Time 18.015 s) was 1.1121 RLU and the RLU (Time 18.796 s) was 25.7864 RLU. For the same compound, the RLU (Time 20.796 s) was 69.0707 RLU, the RLU (Time 22.796 s) was 111.584 RLU and the RLU (Time 24.796 s) was 140.624 RLU. For the same compound, the RLU (Time 26.796 s) was 217.83 RLU, the RLU (Time 28.796 s) was 298.948 RLU and the RLU (Time 30.796 s) was 381.71 RLU. For the same compound, the RLU (Time 32.796 s) was 449.564 RLU, the RLU (Time 34.796 s) was 475.411 RLU and the RLU (Time 36.796 s) was 563.041 RLU. For the same compound, the RLU (Time 38.796 s) was 583.488 RLU, the RLU (Time 40.796 s) was 612.54 RLU and the RLU (Time 42.796 s) was 644.654 RLU. The RLU (Time 44.796 s) was 679.197 RLU, the RLU (Time 46.796 s) was 695.288 RLU and the RLU (Time 48.796 s) was 701.461 RLU. It also gave an RLU (Time 50.796 s) of 756.471 RLU, an RLU (Time 52.796 s) of 734.503 RLU and an RLU (Time 54.796 s) of 776.344 RLU. The RLU (Time 56.796 s) was 818.875 RLU, the RLU (Time 58.796 s) was 815.634 RLU and the RLU (Time 60.796 s) was 814.863 RLU. The RLU (Time 62.796 s) was 815.671 RLU, the RLU (Time 64.796 s) was 814.539 RLU and the RLU (Time 66.796 s) was 840.236 RLU. The RLU (Time 68.796 s) was 839.926 RLU, the RLU (Time 70.796 s) was 857.451 RLU and the RLU (Time 72.796 s) was 860.887 RLU. The RLU (Time 74.796 s) was 876.325 RLU, the RLU (Time 76.796 s) was 873.737 RLU and the RLU (Time 78.796 s) was 889.618 RLU. It also gave an RLU (Time 80.796 s) of 892.644 RLU, an RLU (Time 82.796 s) of 897.83 RLU and an RLU (Time 84.796 s) of 886.895 RLU. For the same compound, the RLU (Time 86.796 s) was 870.09 RLU, the RLU (Time 88.796 s) was 907.185 RLU and the RLU (Time 90.796 s) was 877.458 RLU. It also gave an RLU (Time 92.796 s) of 891.158 RLU, an RLU (Time 94.796 s) of 920.191 RLU and an RLU (Time 96.796 s) of 905.406 RLU. It also gave an RLU (Time 98.796 s) of 898.952 RLU, an RLU (Time 100.796 s) of 892.147 RLU and an RLU (Time 102.796 s) of 894.991 RLU. It also gave an RLU (Time 104.796 s) of 894.373 RLU, an RLU (Time 106.796 s) of 867.268 RLU and an RLU (Time 108.796 s) of 872.524 RLU. The RLU (Time 110.796 s) was 857.451 RLU, the RLU (Time 112.796 s) was 864.824 RLU and the RLU (Time 114.796 s) was 846.501 RLU. The RLU (Time 116.796 s) was 868.556 RLU, the RLU (Time 118.796 s) was 842.814 RLU and the RLU (Time 120.796 s) was 851.852 RLU. The RLU (Time 122.796 s) was 861.523 RLU, the RLU (Time 124.796 s) was 851.498 RLU and the RLU (Time 126.796 s) was 820.705 RLU. For the same compound, the RLU (Time 128.796 s) was 833.006 RLU, the RLU (Time 130.796 s) was 811.797 RLU and the RLU (Time 132.796 s) was 786.781 RLU. It also gave an RLU (Time 134.796 s) of 809.512 RLU, an RLU (Time 136.796 s) of 797.52 RLU and an RLU (Time 137.562 s) of 816.516 RLU. It also gave an RLU (Time 143.562 s) of 785.521 RLU, an RLU (Time 149.562 s) of 770.713 RLU and an RLU (Time 155.562 s) of 645 RLU. It also gave an RLU (Time 161.562 s) of 650.189 RLU, an RLU (Time 167.562 s) of 602.288 RLU and an RLU (Time 173.562 s) of 588.477 RLU. The RLU (Time 179.562 s) was 570.66 RLU, the RLU (Time 185.562 s) was 562.77 RLU and the RLU (Time 191.562 s) was 515.911 RLU. The RLU (Time 197.562 s) was 487.382 RLU, the RLU (Time 203.562 s) was 468.151 RLU and the RLU (Time 209.562 s) was 433.685 RLU. For the same compound, the RLU (Time 215.562 s) was 406.858 RLU, the RLU (Time 221.562 s) was 386.034 RLU and the RLU (Time 227.562 s) was 427.313 RLU. The RLU (Time 233.562 s) was 409.48 RLU, the RLU (Time 239.562 s) was 419.888 RLU and the RLU (Time 245.562 s) was 384.802 RLU. For the same compound, the RLU (Time 293.562 s) was 250.547 RLU, the RLU (Time 299.562 s) was 240.784 RLU and the RLU (calcium trace, sheet TAS2R1, Time 305.562 s) was 255.305 RLU. For the same compound, the RLU (calcium trace, sheet TAS2R1, Time 311.562 s) was 251.175 RLU, the RLU (calcium trace, sheet TAS2R1, Time 317.562 s) was 242.237 RLU and the RLU (calcium trace, sheet TAS2R1, Time 323.562 s) was 237.346 RLU. For the same compound, the RLU (calcium trace, sheet TAS2R1, Time 329.562 s) was 210.072 RLU, the RLU (calcium trace, sheet TAS2R1, Time 335.562 s) was 207.541 RLU and the RLU (calcium trace, sheet TAS2R1, Time 341.562 s) was 224.802 RLU. It also gave an RLU (calcium trace, sheet TAS2R1, Time 347.562 s) of 199.834 RLU, an RLU (calcium trace, sheet TAS2R1, Time 353.562 s) of 189.761 RLU and an RLU (calcium trace, sheet TAS2R1, Time 359.562 s) of 182.753 RLU. The “Activation threshold concentration TAS2R1” value (lowest concentration with significantly increased fluorescence vs empty vector (p < 0.01)) was 0.3 µM and 0.30 µM.

Source: PMC10247784, “Physiological activation of human and mouse bitter taste receptors by bile acids” (Communications Biology, 2023)
